Data as given in publication PMC2806534 (Planta, 2009).

Target: T1, AtSUT4 (Arabidopsis thaliana, UniProt Q9FE59)
T1 sequence (Q9FE59 1-510): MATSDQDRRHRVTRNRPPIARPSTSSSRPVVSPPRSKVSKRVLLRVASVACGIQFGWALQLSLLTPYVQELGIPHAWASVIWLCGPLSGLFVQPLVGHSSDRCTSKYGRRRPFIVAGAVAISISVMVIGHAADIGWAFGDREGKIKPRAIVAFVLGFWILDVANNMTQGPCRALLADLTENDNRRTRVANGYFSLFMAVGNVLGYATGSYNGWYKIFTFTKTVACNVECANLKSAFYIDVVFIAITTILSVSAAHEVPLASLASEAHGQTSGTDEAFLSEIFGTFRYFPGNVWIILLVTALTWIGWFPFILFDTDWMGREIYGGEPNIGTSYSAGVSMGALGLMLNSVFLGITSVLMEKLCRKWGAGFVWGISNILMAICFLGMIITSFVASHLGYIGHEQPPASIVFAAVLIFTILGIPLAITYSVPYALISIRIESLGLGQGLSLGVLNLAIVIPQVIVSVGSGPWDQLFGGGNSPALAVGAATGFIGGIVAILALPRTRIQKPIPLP
Experiment: inhibition of ^[…]-sucrose uptake in yeast expressing AtSUT4
Type: cell-based
Settings: 3 mM ^14C-sucrose; competing non-labeled sugar at 9 mM

| Structure (SMILES) | % inhibition at 9 mM |
| --- | --- |
| OC[C@H]1O[C@@H](O[C@H]2[C@H](O)[C@@H](O)C(O)O[C@@H]2CO)[C@H](O)[C@@H](O)[C@H]1O (some centres unmarked) [lactose] | uptake of sucrose by AtSUT4 was inhibited by rutinose, maltose and lactose |
| OC[C@H]1O[C@H](O[C@H]2[C@H](O)[C@@H](O)C(O)O[C@@H]2CO)[C@H](O)[C@@H](O)[C@@H]1O (some centres unmarked) [maltose] | uptake of sucrose by AtSUT4 was inhibited by rutinose, maltose and lactose |
